Laboratory results taken from the supplement of paper PMC7840683.
± gives the standard deviation of the averaged measurements.

System: HepaRG
Experiment: LDH release cytotoxicity, % of total lysis control; higher = more cytotoxic
Conditions: 48 h
Summary of the method: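 Eight-point half-log series of test chemicals, the highest at 100 µM, were given in duplicate for 48 h to single-lot HepaRG cells on collagen I-coated 96-well plates in serum-free induction medium with 0.5% DMSO. A Tecan Safire read resorufin fluorescence from CytoTox-ONE as a measure of LDH in 50 µL spent medium, with 0.1% Triton X in total lysis wells. Percent cytotoxicity was normalized to on-plate vehicle and total lysis controls and averaged over the duplicates.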

Structure (SMILES)	LDH release cytotoxicity (0.03162 µM) [%]	LDH release cytotoxicity (0.1 µM) [%]	LDH release cytotoxicity (0.3162278 µM) [%]	LDH release cytotoxicity (1 µM) [%]	LDH release cytotoxicity (3.16228 µM) [%]	LDH release cytotoxicity (10 µM) [%]	LDH release cytotoxicity (31.6228 µM) [%]	LDH release cytotoxicity (100 µM) [%]	LDH release cytotoxicity (0.031623 µM) [%]	LDH release cytotoxicity (0.316228 µM) [%]
O=c1[nH]cnc2c1ncn2C1CCC(CO)O1 (configuration not stated) [2',3'-Dideoxyinosine]	-2.26 ± 0.4	-1.91 ± 0.031	-1.96 ± 1	-1.29 ± 0.97	-1.75 ± 0.0016	-1.3 ± 0.057	-1.11 ± 1.1	-0.428 ± 0.43	–	–
O=C(O)C(F)(F)C(F)(F)C(F)(F)C(F)(F)C(F)(F)C(F)(F)C(F)(F)C(F)(F)C(F)(F)F [Perfluorodecanoic acid]	–	-0.365 ± 0.079	–	-0.768 ± 0.65	-7.62 ± 0.32	7.64 ± 0.07	8.49 ± 0.18	44.4 ± 6.8	2.61 ± 0.091	-0.683 ± 1.6
OCCCl [2-Chloroethanol]	-1.15 ± 0.41	-1.03 ± 0.86	-1.59 ± 0.33	-1.39 ± 0.77	-1.15 ± 0.39	-0.492 ± 0.48	-0.514 ± 0.24	4.05 ± 0.92	–	–
CNC(=O)ON=C(C)SC [Methomyl]	-0.681 ± 0.27	-1.04 ± 0.28	-0.724 ± 0.3	-0.623 ± 0.49	-1.04 ± 0.3	-0.128 ± 0.062	-1.13 ± 0.27	-0.0692 ± 0.37	–	–
c1ccc(C(OC2CCCN(CCc3ccc4c(c3)OCO4)C2)c2ccccc2)cc1 (configuration not stated) [Zamifenacin]	-1.023 ± 0.0016	-1.51 ± 0.059	-1.31 ± 0.77	-1.54 ± 0.46	-1.68 ± 1.4	-1.11 ± 0.43	2 ± 0.19	51.7 ± 1.1	–	–
Oc1ccccc1 [Phenol]	-1.29 ± 0.31	-1.84 ± 0.82	-1.69 ± 0.2	-1.85 ± 0.26	-1.67 ± 0.035	-1.64 ± 0.055	-1.18 ± 0.073	0.202 ± 0.087	–	–
ClC(Cl)c1ccccc1 [Benzal chloride]	0.273 ± 0.17	-0.75 ± 0.78	-0.461 ± 0.39	-1.3 ± 1.2	-1.29 ± 0.9	0.533 ± 0.9	1.06 ± 1.1	2.15 ± 0.29	–	–
CC(C)(C)c1cc(O)ccc1O [tert-Butylhydroquinone]	-1.59 ± 0.56	-1.78 ± 0.34	-2.28 ± 0.47	-2.78 ± 0.035	-3.35 ± 0.087	-3.59 ± 0.29	-4.19 ± 0.26	-3.84 ± 0.12	–	–
Cc1cccc(C)c1N [2,6-Dimethylaniline]	-1.3 ± 1.2	-0.274 ± 0.54	-0.695 ± 1.3	-2 ± 0.2	-1.29 ± 0.67	-1.03 ± 0.33	-0.842 ± 0.55	3.28 ± 2.6	–	–
CCOP(=S)(OCC)SCSC(C)(C)C [Terbufos]	-1.37 ± 0.13	-0.712 ± 0.88	-1.15 ± 0.65	-1.03 ± 0.13	-0.647 ± 0.28	-0.0424 ± 0.46	-0.0818 ± 0.1	1.12 ± 0.089	–	–
c1cc(-c2ccncc2)ccn1 [4,4'-Bipyridine]	-0.85 ± 0.14	-1.15 ± 0.96	-0.941 ± 0.12	-1.18 ± 0.065	-1.05 ± 0.039	4.58 ± 0.24	24 ± 0.4	18 ± 1.7	–	–
COP(=O)(NC(C)=O)SC (configuration not stated) [Acephate]	-0.866 ± 0.12	-0.804 ± 0.21	-0.558 ± 0.78	-0.625 ± 0.92	-0.512 ± 0.7	0.394 ± 0.4	0.786 ± 1.8	1.92 ± 1	–	–
CC(C)OC(=O)Nc1cccc(Cl)c1 [Chlorpropham]	-1.82 ± 0.15	-0.0252 ± 1.6	-2.28 ± 0.48	-2.1 ± 0.63	-1.45 ± 0.039	-1.72 ± 0.48	-1.01 ± 0.056	1.41 ± 0.48	–	–
NC(=O)c1nc(-c2cccc(-c3cc(F)ccc3OCC(F)(F)C(F)(F)F)c2)n[nH]1 [MK-274]	-1.29 ± 0.91	-0.429 ± 0.81	-0.661 ± 0.16	-1.07 ± 0.22	-0.753 ± 0.38	-0.915 ± 0.94	0.166 ± 0.068	86.6 ± 1.7	–	–
OCC(O)CO [Glycerol]	-1.51 ± 0.67	-1.11 ± 0.27	-1.56 ± 0.12	-1.79 ± 0.27	-1.43 ± 0.14	-1.14 ± 0.37	-0.926 ± 0.83	-0.545 ± 0.22	–	–
Clc1cc(Cl)c(Cl)cc1Cl [1,2,4,5-Tetrachlorobenzene]	-1.15 ± 0.52	-1.29 ± 0.64	-0.238 ± 1.4	-1.08 ± 0.043	-0.932 ± 0.35	-0.175 ± 0.34	-0.116 ± 0.54	1.14 ± 0.66	–	–
CNCc1ccc(NC(=O)c2c[nH]c3c2C(=O)CCC3)cc1	-1.87 ± 1.2	-0.925 ± 0.22	-1.24 ± 0.49	-1.23 ± 0.55	-1.06 ± 0.37	-0.719 ± 0.61	-0.723 ± 0.24	-1.06 ± 0.15	–	–
CCOC(=O)C(C)Oc1ccc(Oc2nc3ccc(Cl)cc3o2)cc1 (configuration not stated) [Fenoxaprop-ethyl]	-2.02 ± 0.53	-2.51 ± 0.57	-2.8 ± 0.91	-2.59 ± 1	-2.21 ± 0.26	-2.46 ± 0.87	-1.44 ± 0.15	-1.21 ± 0.54	–	–
CCCC(=O)O [Butanoic acid]	0.168 ± 0.2	-0.77 ± 0.36	-0.76 ± 0.38	-1.47 ± 0.67	-0.676 ± 0.53	-0.93 ± 0.85	-0.26 ± 0.0066	-0.235 ± 0.085	–	–
